Consider 2 molecules from patent publication US10548321B2 (priority 2009, dated 2020).

The assay relates to Pyricularia oryzae. The format is cell-based. The settings on record: single active, absorption at 405 nm 7 days after inoculation, 18° C.

Like-named read-outs stand apart in the source and are kept apart here.

As to `COC(=O)N(OC)c1ccccc1COc1ccn(-c2ccc(Cl)cc2)n1` [Pyraclostrobin, pyraclostrobin], the Observed efficacy (0.004 ppm) was 23%. Turning to `CC1(C)C(C=C(Cl)Cl)C1C(=O)OC(C#N)c1cccc(Oc2ccccc2)c1` (stereo not drawn) [alpha-Cypermethrin, alpha-cypermethrin], where the note is “1 ppm”, the Observed efficacy was found to be 1%.
